Test results taken from the supplement of paper PMC10307832.

Columns and labels:
Assay in all cases: relative viability (nuclei count vs DMSO), 5 days (fraction); higher = more cells survive
MK-2206 + AZD7762 = compound: NC1(c2ccc(-c3nc4ccn5c(=O)[nH]nc5c4cc3-c3ccccc3)cc2)CCC1 [MK-2206] + NC(=O)Nc1cc(-c2cccc(F)c2)sc1C(=O)N[C@H]1CCCNC1 [AZD7762] (partner 0.2 µM)
Outline: (§1)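 Lung cancer cell lines were pin-tool dosed in 1536-well plates on the day after seeding, with either a lone drug or a fixed anchor-drug dose plus five library-drug doses (not always all listed) in √10 steps. Nuclei were counted on 4× images after 5 days. Relative viability is the ratio of treated-well to vehicle-well nuclei counts, with each value a median of duplicate plates.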

Pictilisib + Dasatinib = compound: CS(=O)(=O)N1CCN(Cc2cc3nc(-c4cccc5[nH]ncc45)nc(N4CCOCC4)c3s2)CC1 [Pictilisib] + Cc1nc(Nc2ncc(C(=O)Nc3c(C)cccc3Cl)s2)cc(N2CCN(CCO)CC2)n1 [Dasatinib] (partner 0.075 µM)
Outline: as §1

Pictilisib + Olaparib = compound: CS(=O)(=O)N1CCN(Cc2cc3nc(-c4cccc5[nH]ncc45)nc(N4CCOCC4)c3s2)CC1 [Pictilisib] + O=C(c1cc(Cc2n[nH]c(=O)c3ccccc23)ccc1F)N1CCN(C(=O)C2CC2)CC1 [Olaparib] (partner 8 µM)
Outline: as §1

Pictilisib + Pemetrexed = compound: CS(=O)(=O)N1CCN(Cc2cc3nc(-c4cccc5[nH]ncc45)nc(N4CCOCC4)c3s2)CC1 [Pictilisib] + Nc1nc2[nH]cc(CCc3ccc(C(=O)N[C@@H](CCC(=O)O)C(=O)O)cc3)c2c(=O)[nH]1 [Pemetrexed] (partner 0.2 µM)
Outline: as §1

Pictilisib + Navitoclax = compound: CS(=O)(=O)N1CCN(Cc2cc3nc(-c4cccc5[nH]ncc45)nc(N4CCOCC4)c3s2)CC1 [Pictilisib] + CC1(C)CCC(c2ccc(Cl)cc2)=C(CN2CCN(c3ccc(C(=O)NS(=O)(=O)c4ccc(N[C@H](CCN5CCOCC5)CSc5ccccc5)c(S(=O)(=O)C(F)(F)F)c4)cc3)CC2)C1 [Navitoclax] (partner 0.5 µM)
Outline: as §1

| Cell Line | relative viability (MK-2206 + AZD7762; first compound 0.01 µM) | relative viability (MK-2206 + AZD7762; first compound 0.03162 µM) | relative viability (MK-2206 + AZD7762; first compound 0.3162 µM) | relative viability (MK-2206 + AZD7762; first compound 1 µM) | relative viability (Pictilisib + Dasatinib; first compound 0.02 µM) | relative viability (Pictilisib + Dasatinib; first compound 0.06325 µM) | relative viability (Pictilisib + Dasatinib; first compound 0.6325 µM) | relative viability (Pictilisib + Dasatinib; first compound 2 µM) | relative viability (Pictilisib + Olaparib; first compound 0.02 µM) | relative viability (Pictilisib + Olaparib; first compound 0.06325 µM) | relative viability (Pictilisib + Olaparib; first compound 0.6325 µM) | relative viability (Pictilisib + Olaparib; first compound 2 µM) | relative viability (Pictilisib + Pemetrexed; first compound 0.02 µM) | relative viability (Pictilisib + Pemetrexed; first compound 0.06325 µM) | relative viability (Pictilisib + Pemetrexed; first compound 0.6325 µM) | relative viability (Pictilisib + Pemetrexed; first compound 2 µM) | relative viability (Pictilisib + Navitoclax; first compound 0.02 µM) | relative viability (Pictilisib + Navitoclax; first compound 0.06325 µM) | relative viability (Pictilisib + Navitoclax; first compound 0.6325 µM) | relative viability (Pictilisib + Navitoclax; first compound 2 µM) |
| --- | --- | --- | --- | --- | --- | --- | --- | --- | --- | --- | --- | --- | --- | --- | --- | --- | --- | --- | --- | --- |
| NCI-H650 | 1 | 0.706 | 1.13 | 1 | 0.498 | 0.497 | 0.41 | 0.333 | 0.372 | 0.37 | 0.44 | 0.348 | 1.02 | 0.887 | 0.701 | 0.525 | – | – | – | – |
| IA-LM | – | – | – | – | – | – | – | – | 0.952 | 0.987 | 0.792 | 0.516 | – | – | – | – | 0.777 | 0.898 | 0.766 | 0.309 |
| A-427 | 0.751 | 0.596 | 0.598 | 0.601 | 0.666 | 0.616 | 0.648 | 0.347 | 0.721 | 0.712 | 0.71 | 0.552 | 0.955 | 0.984 | 0.969 | 0.803 | 0.952 | 0.785 | 1.04 | 0.809 |
| NCI-H2347 | 0.778 | 0.652 | 0.649 | 0.636 | 0.321 | 0.297 | 0.337 | 0.215 | 0.639 | 0.626 | 0.474 | 0.406 | 0.459 | 0.455 | 0.391 | 0.367 | 0.865 | 0.874 | 0.75 | 0.528 |
| NCI-H1793 | 0.679 | 0.232 | 0.243 | 0.251 | 0.361 | 0.39 | 0.351 | 0.243 | 0.812 | 0.613 | 0.331 | 0.167 | 0.828 | 0.754 | 0.522 | 0.276 | 0.397 | 0.388 | 0.308 | 0.171 |
| NCI-H1651 | 0.506 | 0.367 | 0.466 | 0.438 | 0.35 | 0.387 | 0.358 | 0.201 | 0.18 | 0.187 | 0.21 | 0.191 | 0.516 | 0.591 | 0.519 | 0.38 | 1.02 | 0.926 | 0.9 | 0.53 |
| HCC-78 | 0.66 | 0.608 | 0.624 | 0.538 | 0.379 | 0.359 | 0.222 | 0.189 | 0.727 | 0.548 | 0.529 | 0.351 | 0.894 | 0.911 | 0.861 | 0.893 | 0.809 | 0.594 | 0.45 | 0.231 |
| NCI-H23 | 0.333 | 0.192 | 0.188 | 0.229 | 0.864 | 0.863 | 0.487 | 0.234 | 0.298 | 0.389 | 0.355 | 0.198 | 0.618 | 0.757 | 0.5 | 0.374 | 0.852 | 0.899 | 0.665 | 0.372 |
| LOU-NH91 | 0.8 | 0.751 | 0.705 | 0.605 | 0.581 | 0.546 | 0.443 | 0.359 | 0.946 | 0.908 | 0.875 | 0.695 | 0.381 | 0.368 | 0.4 | 0.372 | 0.822 | 0.735 | 0.573 | 0.408 |
| LXF-289 | 1.06 | 1.01 | 1.12 | 1.15 | 0.189 | 0.212 | 0.104 | 0.0692 | 1.1 | 1.14 | 1.03 | 0.631 | 0.948 | 0.874 | 0.983 | 0.669 | 0.97 | 0.935 | 0.992 | 0.827 |
| NCI-H460 | 0.692 | 0.366 | 0.612 | 0.644 | 0.531 | 0.545 | 0.205 | 0.0803 | 0.425 | 0.436 | 0.395 | 0.173 | 0.0594 | 0.0727 | 0.0616 | 0.0599 | 1.15 | 1.07 | 0.563 | 0.201 |
| NCI-H1792 | 0.613 | 0.702 | 0.529 | 0.293 | 0.811 | 0.795 | 0.417 | 0.228 | 0.386 | 0.294 | 0.261 | 0.0715 | 0.924 | 0.954 | 0.553 | 0.177 | 0.641 | 0.728 | 0.383 | 0.226 |
| EMC-BAC-2 | 1.06 | 1.17 | 1.02 | 0.852 | 0.317 | 0.324 | 0.247 | 0.199 | 0.513 | 0.52 | 0.407 | 0.334 | 0.45 | 0.451 | 0.424 | 0.41 | 1.1 | 1.14 | 1.07 | 0.649 |
| COR-L 105 | – | – | – | – | 0.414 | 0.283 | 0.209 | 0.181 | 0.667 | 0.697 | 0.734 | 0.549 | 1.19 | 1.04 | 1.22 | 0.885 | 0.739 | 0.77 | 0.679 | 0.521 |
| NCI-H2009 | – | – | – | – | 0.307 | 0.298 | 0.159 | 0.129 | 0.743 | 0.634 | 0.592 | 0.422 | 1.04 | 1.12 | 1.17 | 0.875 | 1.16 | 1.19 | 1.15 | 0.958 |
| SW 900 | 0.531 | – | 0.591 | 0.728 | 0.577 | 0.547 | 0.264 | 0.255 | 0.793 | 0.818 | 0.713 | 0.471 | 0.499 | 0.478 | 0.477 | 0.27 | – | – | – | – |
| NCI-H1623 | – | – | – | – | 0.55 | 0.487 | 0.472 | 0.251 | – | – | – | – | – | – | – | – | – | – | – | – |
| LCLC-103H | 0.751 | 0.818 | 0.765 | 0.712 | 0.457 | 0.547 | 0.367 | 0.142 | 0.722 | 0.851 | 0.701 | 0.475 | 0.468 | 0.419 | 0.475 | 0.428 | – | – | – | – |
